Results from US20100286029A1, “USE OF A PEPTIDE AS A THERAPEUTIC AGENT” (priority 2007, published 2010).
No end group written: not given here.

Key:
[1] = tested on: Human Peripheral Blood Mononuclear Cells (PBMC); assay: T cell proliferation assay (PHA, 3H-thymidine); conditions: 10 micrograms per ml, 3H-thymidine incorporation
Experimental: Human Peripheral Blood Mononuclear Cells (PBMC) were obtained from normal human donors. The T cell proliferation was induced by stimulation of the cells with the T cell mitogen phytohemagglutinin (PHA), either in the absence (positive proliferation control), or in the presence of test peptides—10 micrograms per ml—to examine their effects on the T cell proliferating response. 10^5/well PBMC were plated in 96-well microtiter plates and assayed in duplicate with the peptides. […] At the end of incubation time, the plates were harvested and the cells counted by liquid scintillation for the incorporation of ^3H-thymidine as a measure of T cell proliferation.

[2] = tested on: Human Peripheral Blood Mononuclear Cells (PBMC); assay: B cell proliferation assay (SAC plus Interleukin-2, 3H-thymidine); format: cell-based; conditions: 10 micrograms per ml
Experimental: Human Peripheral Blood Mononuclear Cells (PBMC) were obtained from normal human donors. The B cell proliferation was induced by stimulation of the cells with the B cell mitogen Staphylococcus aureus Cowans I (SAC) plus Interleukin-2, either in the absence (positive proliferation control), or in the presence of test peptides—10 micrograms per ml—to examine their effects on the B cell response. 10^5/well PBMC were plated in 96-well microtiter plates and assayed in duplicate with the peptides. […] At the end of incubation time, the plates were harvested and the cells counted by liquid scintillation for the incorporation of ^3H-thymidine as a measure of B cell proliferation.

[3] = tested on: human macrophages; assay: TNF alpha production assay (LPS-stimulated macrophages, ELISA); format: cell-based; conditions: 10 micrograms per ml, 30 min preincubation; LPS 200 ng/ml, overnight
Experimental: Human Peripheral Blood Mononuclear Cells (PBMC) were obtained from normal human donors. The macrophages were prepared by adherence of PBMC to the plastic wells of the plates. […] Not stimulated macrophages served as negative background control. After overnight incubation, supernatants from the control and LPS-stimulated cultures were harvested and assayed for TNF alpha production employing a TNF alpha specific ELISA.

[4] = tested on: hepatitis B virus (HBV) ayw strain; assay: HBV experimental assay system, secreted HBV DNA by TaqMan PCR in HepG2-2.2.15; format: cell-based; conditions: 10 micrograms per ml; HepG2-2.2.15 cells, six days
Experimental: HepG2-2.2.15 is a stable cell line containing the hepatitis B virus (HBV) ayw strain genome (ATCC Cat. No. CRL-11997). Antiviral compounds blocking any late step of viral replication such as transcription, translation, pregenome encapsidation, reverse transcription, particle assembly and release can be identified and characterized using this cell line.
HepG2-2.2.15 cells were plated in 96-well microtiter plates. After 16-24 hours the confluent monolayer of HepG2-2.2.15 cells was washed and the medium was replaced with complete medium containing test peptides-10 micrograms per ml—in duplicate. […] Three days later the culture medium was replaced with fresh medium containing the peptides. Six days following the initial administration of the peptides, the cell culture supernatants was collected, treated with pronase and DNAse and then used in a real-time quantitative TaqMan PCR assay. The PCR-amplified HBV DNA was detected in real-time by monitoring increases in fluorescence signals that result from the exonucleolytic degradation of a quenched fluorescence probe molecule that hybridizes to the mplified HBV DNA. For each PCR amplification, a standard curve was simultaneously generated using dilutions of purified HBV DNA.
Antiviral activity was calculated from the reduction in HBV DNA levels (% virus control). […]

[5] = tested on: Human A549 cells; assay: Apoptosis prevention assay (C2 ceramide, Annexin-5); format: cell-based; conditions: 10 micrograms per ml, 30 min pretreatment
Experimental: Human A549 cells (carcinomic human alveolar basal epithelial cells) were utilized in the experiments employing the Annexin-5 apoptosis assay. […] A549 cells were pretreated for 30 min with test peptides—10 micrograms per ml—followed by the exposure to C2 ceramide.

[6] = tested on: spleen cells; assay: Th1/Th2 cytokine profiling assay (Ovalbumin-restimulated spleen cells, CBA kit); format: cell-based, Balb/c mice; conditions: 10 micrograms per ml; Ovalbumin restimulation, 72 hours

## Tyr-Pro-Phe-Val-Glu-Pro-Ile-OH (YPFVEPI-OH) [Peptide 1]
[1]
  % of PHA induced Control (T cell proliferation): 98.8%
[2]
  induction of the proliferation of specifically stimulated human B-cells: did not induce
[3]
  induction of the LPS-induced TNF-alpha production in human macrophages: 18.4%
[4]
  inhibition of HBV replication as compared to the virus control infection: 23.8%
[5]
  prevention (reduction) of ceramide-induced apoptosis on human lung cells: 37.3%
[6]
  IFNγ spleen cells; TH1 response (% of control): 218.6 % of control
  IL-2 spleen cells (% of control): 96.9 % of control
  IL-4 spleen cells; TH2 response (% of control): 142.1 % of control
  IL-5 spleen cells; TH2 response (% of control): 81.6 % of control
  TNF-a spleen cells; TH1 response (% of control): 143.7 % of control
